Measured values as given in ChEMBL document CHEMBL3232853, “Alkylsulfone-containing trisubstituted cyclohexanes as potent and bioavailable chemokine receptor 2 (CCR2) antagonists” (Bioorg Med Chem Lett, 2014).
Activity calls are given as the source filed them. No cut-off for these calls is given here.

Experiments:
[1] = Permeability across apical to basolateral side in human Caco2 cells; assay type: ADME, cell-based; settings: Caco-2, read-out: permeability
Homo sapiens = species: Homo sapiens; assay: Inhibition of sodium channel (unknown origin) at 10 uM at 4 Hz by patch clamp assay relative to control
[2] = target: C-C chemokine receptor type 2 (Homo sapiens, UniProt P41597); assay: Displacement of [125I]-labeled human MCP1 from CCR2 in human PBMC
C-C chemokine receptor type 2, sequence (P41597 whole entry): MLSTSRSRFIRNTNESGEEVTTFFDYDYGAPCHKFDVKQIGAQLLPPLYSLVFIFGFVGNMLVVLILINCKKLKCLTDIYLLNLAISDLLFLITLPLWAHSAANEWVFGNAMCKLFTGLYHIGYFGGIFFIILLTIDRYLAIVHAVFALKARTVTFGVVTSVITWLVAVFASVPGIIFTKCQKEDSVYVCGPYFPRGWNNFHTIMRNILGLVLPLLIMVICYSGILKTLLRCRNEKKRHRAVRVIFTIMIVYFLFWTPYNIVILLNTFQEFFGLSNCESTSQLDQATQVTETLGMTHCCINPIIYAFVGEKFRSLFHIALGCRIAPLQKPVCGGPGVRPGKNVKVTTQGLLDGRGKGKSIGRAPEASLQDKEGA

Rattus norvegicus [3] = species: Rattus norvegicus; assay: Inhibition of rat sodium channel site 2 at 10 uM relative to control
Liver microsome = settings: human, microsomes, 10 min
Description: Metabolic stability in human liver microsomes assessed as compound remaining after 10 mins

[4] = target: Voltage-gated inwardly rectifying potassium channel KCNH2 (Homo sapiens, UniProt Q12809); assay: Inhibition of human ERG by FLIPR assay
Voltage-gated inwardly rectifying potassium channel KCNH2, sequence (Q12809 whole entry): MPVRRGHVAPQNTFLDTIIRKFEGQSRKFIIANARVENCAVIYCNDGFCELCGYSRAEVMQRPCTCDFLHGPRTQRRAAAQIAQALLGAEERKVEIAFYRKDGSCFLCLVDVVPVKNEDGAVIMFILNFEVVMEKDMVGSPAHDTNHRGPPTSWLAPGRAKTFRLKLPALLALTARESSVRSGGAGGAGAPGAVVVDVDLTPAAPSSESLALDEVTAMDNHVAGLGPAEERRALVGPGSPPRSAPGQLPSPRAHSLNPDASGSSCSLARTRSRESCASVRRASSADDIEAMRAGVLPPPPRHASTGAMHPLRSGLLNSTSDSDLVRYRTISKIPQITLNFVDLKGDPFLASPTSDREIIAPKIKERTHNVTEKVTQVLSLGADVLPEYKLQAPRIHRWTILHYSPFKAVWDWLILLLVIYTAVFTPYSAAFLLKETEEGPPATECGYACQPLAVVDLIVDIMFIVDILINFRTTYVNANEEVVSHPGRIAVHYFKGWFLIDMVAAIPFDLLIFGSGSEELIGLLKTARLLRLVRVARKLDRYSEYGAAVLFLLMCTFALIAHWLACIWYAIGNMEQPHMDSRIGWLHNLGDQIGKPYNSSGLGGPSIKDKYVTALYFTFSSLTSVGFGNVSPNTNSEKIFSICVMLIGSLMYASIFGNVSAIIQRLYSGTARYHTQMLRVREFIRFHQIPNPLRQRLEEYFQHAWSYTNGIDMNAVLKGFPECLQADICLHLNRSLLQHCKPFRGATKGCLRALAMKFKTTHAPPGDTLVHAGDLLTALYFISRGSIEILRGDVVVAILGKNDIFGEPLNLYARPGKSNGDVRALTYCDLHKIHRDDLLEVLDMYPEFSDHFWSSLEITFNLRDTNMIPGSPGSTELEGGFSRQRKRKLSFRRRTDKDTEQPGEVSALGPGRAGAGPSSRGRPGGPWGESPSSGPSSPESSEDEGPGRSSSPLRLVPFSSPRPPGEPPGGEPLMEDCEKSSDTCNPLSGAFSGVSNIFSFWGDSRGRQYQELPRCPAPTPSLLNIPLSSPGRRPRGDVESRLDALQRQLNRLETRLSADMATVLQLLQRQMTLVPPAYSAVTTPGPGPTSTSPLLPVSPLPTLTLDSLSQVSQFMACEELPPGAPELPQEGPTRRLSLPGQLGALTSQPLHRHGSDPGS

Mus musculus [5] = assay: Oral bioavailability in mouse at 54 mg/kg; assay type: ADME, organism-based; settings: in vivo
Rattus norvegicus [6] = assay: Oral bioavailability in rat at 72 mg/kg; assay type: ADME, organism-based; settings: in vivo
Cynomolgus monkey [7] = assay: Oral bioavailability in cynomolgus monkey at 14 mg/kg; assay type: ADME, organism-based, Macaca fascicularis; settings: in vivo
Canis familiaris [8] = assay: Oral bioavailability in dog at 14 mg/kg; assay type: ADME, organism-based, Canis lupus familiaris; settings: in vivo
[9] = Clearance in mouse at 3 mg/kg, iv; assay type: ADME, organism-based; set-up: dose 3 mg/kg, route intravenous; settings: in vivo
[10] = Clearance in rat at 6 mg/kg, iv; assay type: ADME, organism-based; set-up: dose 6 mg/kg, route intravenous; settings: in vivo
[11] = Clearance in cynomolgus monkey at 1 mg/kg, iv; assay type: ADME, organism-based, Macaca fascicularis; set-up: dose 1 mg/kg, route intravenous; settings: in vivo
[12] = Clearance in dog at 1 mg/kg, iv; assay type: ADME, organism-based, Canis lupus familiaris; set-up: dose 1 mg/kg, route intravenous; settings: in vivo
Mus musculus [13] = assay: Antiinflammatory activity in thioglycollate-induced human CCR2 knock-in mouse peritonitis model assessed as reduction of Ly6C+F4/80+ cell numbers in peripheral blood at 50 mg/kg, po administered 1 hr prior to thioglycollate challenge measured after 6 hrs; assay type: functional, organism-based; set-up: dose 50 mg/kg
Mus musculus [14] = assay: Antiinflammatory activity in thioglycollate-induced human CCR2 knock-in mouse peritonitis model assessed as reduction of Ly6C+F4/80+ cell numbers in peritoneal cavity at 50 mg/kg, po administered 1 hr prior to thioglycollate challenge measured after 6 hrs; assay type: functional, organism-based; set-up: dose 50 mg/kg
Mus musculus [15] = assay: Oral bioavailability in mouse at 100 mg/kg; assay type: ADME, organism-based; settings: in vivo
Rattus norvegicus [16] = assay: Oral bioavailability in rat at 43 mg/kg; assay type: ADME, organism-based; settings: in vivo
Cynomolgus monkey [17] = assay: Oral bioavailability in cynomolgus monkey at 10 mg/kg; assay type: ADME, organism-based, Macaca fascicularis; settings: in vivo
Canis familiaris [18] = assay: Oral bioavailability in dog at 10 mg/kg; assay type: ADME, organism-based, Canis lupus familiaris; settings: in vivo
[19] = Clearance in mouse at 5 mg/kg, iv; assay type: ADME, organism-based; set-up: dose 5 mg/kg, route intravenous; settings: in vivo
[20] = Clearance in rat at 4 mg/kg, iv; assay type: ADME, organism-based; set-up: dose 4 mg/kg, route intravenous; settings: in vivo
Mus musculus [21] = assay: Antiinflammatory activity in thioglycollate-induced human CCR2 knock-in mouse peritonitis model assessed as reduction of Ly6C+F4/80+ cell numbers in peripheral blood at 100 mg/kg, po administered 1 hr prior to thioglycollate challenge measured after 6 hrs; assay type: functional, organism-based; set-up: dose 100 mg/kg
Mus musculus [22] = assay: Antiinflammatory activity in thioglycollate-induced human CCR2 knock-in mouse peritonitis model assessed as reduction of Ly6C+F4/80+ cell number peritoneal cavity at 100 mg/kg, po administered 1 hr prior to thioglycollate challenge measured after 6 hrs; assay type: functional, organism-based; set-up: dose 100 mg/kg
Mus musculus [23] = species: Mus musculus; assay: Antiinflammatory activity in thioglycollate-induced wild type mouse peritonitis model; assay type: functional, organism-based
[24] = Antagonist activity at CCR2 in human monocytes assessed as reduction of chemotaxis in presence of […]

SMILES | Papp A→B [1] | IC50 [2] | inhibition (Rattus norvegicus [3]) | Stability (Liver microsome) | further results
CCS(=O)(=O)C[C@@H]1C[C@H](N(C)C(C)C)CC[C@@H]1N1CC[C@H](NC(=O)c2cccc(C(F)(F)F)c2)C1=O | < 15 nm/s | 1.2 nM | 26% | 100% | inhibition (Homo sapiens): 4.2%
Cc1ccc(C(=O)N[C@H]2CCN([C@H]3CC[C@@H](N(C)C(C)C)C[C@H]3CS(C)(=O)=O)C2=O)cc1C(F)(F)F |  | 5.2 nM | 36% |  | 
CC(C)N(C)[C@@H]1CC[C@H](N2CC[C@H](NC(=O)c3cccc(OC(F)(F)F)c3)C2=O)[C@H](CS(=O)(=O)C(C)(C)C)C1 |  | 1.2 nM | 61% |  | IC50 [4]: > 80000 nM
CC(C)N(C)[C@@H]1CC[C@H](N2CC[C@H](NC(=O)c3cccc(C(F)(F)F)c3)C2=O)[C@H](CS(C)(=O)=O)C1 | < 15 nm/s | 1.8 nM | 3% | 100% | inhibition (Homo sapiens): 22%; F (Mus musculus [5]): 16%; F (Rattus norvegicus [6]): 1%; F (Cynomolgus monkey [7]): 9%; F (Canis familiaris [8]): 51%; clearance [9]: 4.2 L/h/kg; clearance [10]: 2.52 L/h/kg; clearance [11]: 0.84 L/h/kg; clearance [12]: 0.18 L/h/kg; Activity (Mus musculus [13]): Active; Activity (Mus musculus [14]): Active
CC(C)N(C)[C@@H]1CC[C@H](N2CC[C@H](NC(=O)c3cccc(C(F)(F)F)n3)C2=O)[C@H](CS(C)(=O)=O)C1 |  | 2.2 nM | 0% |  | IC50 [4]: > 80000 nM
CC(C)N(C)[C@@H]1CC[C@H](N2CC[C@H](NC(=O)c3cccc(C(F)(F)F)c3)C2=O)[C@H](CS(=O)(=O)C(C)(C)C)C1 | 30 nm/s | 0.96 nM | 48% | 100% | inhibition (Homo sapiens): 19%; clearance [11]: 0.72 L/h/kg; clearance [12]: 0.3 L/h/kg; F (Mus musculus [15]): 13%; F (Rattus norvegicus [16]): 14%; F (Cynomolgus monkey [17]): 26%; F (Canis familiaris [18]): 74%; clearance [19]: 1.5 L/h/kg; clearance [20]: 3.24 L/h/kg; Activity (Mus musculus [21]): Active; Activity (Mus musculus [22]): Active; Activity (Mus musculus [23]): inactive
CC(C)N(C)[C@@H]1CC[C@H](N2CC[C@H](NC(=O)c3cccc(C(F)(F)F)c3)C2=O)[C@H](CS(=O)(=O)C(C)C)C1 | < 15 nm/s | 0.34 nM |  | 100% | 
CC(C)N(C)[C@@H]1CC[C@H](N2CC[C@H](NC(=O)c3cccc(C(F)(F)F)c3)C2=O)[C@H](CS(=O)(=O)c2ccccc2)C1 | < 15 nm/s |  |  | 88% | IC50 [24]: 0.5 nM
CC(C)N(C)[C@@H]1CC[C@H](N2CC[C@H](NC(=O)c3cc(F)cc(C(F)(F)F)c3)C2=O)[C@H](CS(=O)(=O)C(C)(C)C)C1 |  | 1.3 nM | 48% |  | IC50 [4]: > 80000 nM
CCS(=O)(=O)C[C@@H]1C[C@H](N(C)C(C)C)CC[C@@H]1N1CC[C@H](NC(=O)c2cccc(-c3ccccc3)c2)C1=O |  | 1.1 nM |  |  | IC50 [4]: 60000 nM
CC(C)N(C)[C@@H]1CC[C@H](N2CC[C@H](NC(=O)c3cccc(C(C)(C)C)n3)C2=O)[C@H](CS(C)(=O)=O)C1 |  | 0.7 nM | 46% |  | 
CC(C)N(C)[C@@H]1CC[C@H](N2CC[C@H](NC(=O)c3cccc(C(C)(C)C)c3)C2=O)[C@H](CS(=O)(=O)C(C)C)C1 |  | 0.5 nM |  |  | 
CC(C)N(C)[C@@H]1CC[C@H](N2CC[C@H](NC(=O)c3cccc(OC(F)(F)F)c3)C2=O)[C@H](CS(C)(=O)=O)C1 |  | 5 nM | 32% |  | 
CC(C)N(C)[C@@H]1CC[C@H](N2CC[C@H](NC(=O)c3cccc(C(C)(C)C)c3)C2=O)[C@H](CS(C)(=O)=O)C1 |  | 1.2 nM |  |  | 
